From paper PMC4137987 (Chemical Research in Toxicology, 2014)

Experiments:
[1] = Serum concentration and clearance of PCB3 metabolites after inhalation; assay type: in vivo, female Sprague–Dawley (SD) rats; settings: 0 h postexposure; PCB3 26 μg/rat; mean ± SD, n = 3
[2] = Excretion in urine and feces over 24 h after inhalation of PCB3; assay type: in vivo, female Sprague–Dawley (SD) rats; settings: 0–24 h; PCB3 35 μg/rat; n = 3
[3] = Serum chemistry and serum free thyroxine; assay type: in vivo, female Sprague–Dawley (SD) rats; settings: rats exposed to PCB3 for 2 h
[4] = test system: urinary 8-oxo-dG; test: Urinary 8-oxo-dG analysis; assay type: in vivo, female Sprague–Dawley (SD) rats; settings: exposed rats; composite 24 h urine; not significant vs control (p = 0.23)
[5] = test system: granulosa and theca cells derived from porcine ovary; settings: cited from earlier work

Row | Structure (SMILES) | Serum concentration [1] [ng/mL] | Metabolite excreted in urine, percentage of dose [2] [%] | Unchanged PCB3 in feces, percentage of dose [2] [%] | Unchanged PCB3 in urine, percentage of dose [2] [%] | Serum chemistry parameters (renal function, serum protein, T4, electrolyte balance, pancreas function, liver function, lipid metabolism) [3] | 8-oxo-dG level in 24 h urine [4] [pg/mg creatinine] | Estradiol level in the medium [5]
1 | Oc1ccc(-c2ccc(Cl)cc2)cc1 [4′OH-PCB3] | 7 ± 1 | 1.0 ± 0.5 |  |  |  |  | 
2 | Clc1ccc(-c2ccccc2)cc1 [PCB3, 4-chlorobiphenyl] |  |  | 4 ± 2 | 2 ± 1 | within normal ranges | 160 ± 35 | significant increase
